We go through 2 substances from article PMC11310889, “Ribosomal translation of fluorinated non-canonical amino acids for de novo biologically active fluorinated macrocyclic peptides” (Chemical Science, 2024).

The subject of the assay is E. coli W3110. Kind of assay: Scanning electron microscopy of cell morphology. It counts as cell-based, Escherichia coli. Particulars: E. coli W3110 logarithmic-phase, 4 h treatment at 2 μM and 5 μM (Fig. 5B, S11). As for the experimental part: Thaw the previously preserved E. coli W3110 cells from the -80 °C freezer. […]
Scanning electron microscopy
Thaw the previously preserved E. coli W3110 cells from the -80°C freezer. Scrape a small amount and inoculate it into 1 mL of LB liquid medium. Incubate overnight in a 37°C shaker. The next day, inoculate the strain into fresh LB liquid medium at a 1:100 ratio and incubate at 37°C until the OD600 reaches approximately 0.47 to 0.53. Take 500 μL of E. coli W3110 cells, centrifuge for 10 min at 4000 rpm, and discard the supernatant. Resuspend the cells in 500 μL of PBS, then centrifuge again at 4000 rpm for 10 min and discard the supernatant. Dissolve various macrocyclic peptides in DMSO and dilute to the required concentration. Resuspend the untreated group in 500 μL of PBS.
For the peptide treatment group, resuspend in 495 μL of ddH2O, add 5 μL of 0.2 mM or 0.5 mM peptides, mix well, and let react for 4 h.
After the treament, spot 4 μL of the sample on plates. Perform the first ten-fold dilution and mix, then continue with the second to fifth ten-fold dilutions. Incubate the plates inverted overnight in a 37°C incubator. Scan and count the colonies. For the remaining 492 μL, centrifuge at 6100g for 10 min, discard the supernatant, add 500 μL of ddH2O, and let it stand for 15 min. Centrifuge again at 6100g for 10 min, discard the supernatant, and add 500 μL of ddH2O containing 2.5% glutaraldehyde. Resuspend and fix the cells overnight at 4°C. Centrifuge at 6100g for 10 min, remove the supernatant, and wash twice with ddH2O, letting it stand for 15 min each time, followed by centrifugation at 6100g for 10 min. Discard the supernatant. Dehydrate the sample with ethanol at concentration gradients of 30%, 60%, and 90%, without resuspension, centrifuging at 6100g for […]
10 min and discarding the supernatant after each step. Finally, use 100% ethanol, rest for 15 min, centrifuge at 6100g for 10 min, discard the supernatant, and repeat with 100% ethanol, leaving about 10 μL. Then the critical point was dried and sprayed with gold, and the images were observed by […]
Prediction of binding sites between peptides and the BAM complex
Firstly, the fpocket algorithm was used, a rapid method for pocket prediction based on the three-dimensional structure of BAM complex (PDB ID: 5AYW). This method establishes a grid surrounding the protein, positioning alpha spheres on grid points devoid of spatial conflicts with protein atoms, subsequently utilizing a clustering algorithm to ascertain whether these regions constitute potential binding pockets. Alpha spheres were designated with radii ranging from 3.4Å to 6.2Å, with a prerequisite of at least 15 alpha spheres for a region to be considered a pocket. […]
PepNN evaluated each amino acid for its potentiality as a peptide binding site. […]

With “Ac-(4-F-DPhe)IWHKSLT(4-F-DPhe)NYLHTCGS(Acp)RRRRRRRRR-NH2 (sidechain bridge or staple) [BAM-f2-R9, BAM-f2 conjugated with cell-penetrating peptide R9]”, the “morphological changes by scanning electron microscopy” value is “severe damage in the cell shape and even lysis”.

On to “Ac-(4-F-DPhe)KHFIY(4-F-β-Phe)YRSPICGS(Acp)RRRRRRRRR-NH2 (sidechain bridge or staple) [BAM-β3-R9, BAM-β3 conjugated with cell-penetrating peptide R9]”, for which the “morphological changes by scanning electron microscopy” value was “severe damage in the cell shape and even lysis”.
